Paper PMC3216299 (Bioorganic & medicinal chemistry, 2011)

How the values were obtained:
tubulin = assay: Tubulin polymerization inhibition; assay type: biochemical, mammalian; settings: 100 μM
Mtb H37Rv = Mtb H37Rv growth inhibition; assay type: cell-based, Mycobacterium tuberculosis

SMILES | Tubulin Polymerization inhibition (tubulin) | IC90 (H37Rv) fold less active than lead compound 2 (Mtb H37Rv) | IC90 (Mtb H37Rv; Mycobacterium tuberculosis, H37RV, read-out: Mtb H37Rv IC90, extrapolated from 10 point dose response curve)
CCOC(=O)Nc1nc(NC(C)CCCN(CC)CC)c2nc(-c3ccccc3)c(-c3ccccc3)nc2n1 (centres unmarked) [Compound 2, reference compound] | 24% inhibition 100 μM | – | –
CCOC(=O)Nc1cc(NCCCCN(CC)CC)c2nc(-c3ccccc3)c(-c3ccccc3)nc2n1 [Compound 17, Ethyl (8-((4-(diethylamino)butyl)amino)-2,3-diphenylpyrido[2,3-b]pyrazin-6-yl)carbamate] | 40% inhibition 100 μM | – | –
CCOC(=O)Nc1nc(NC(C)CCCN(CC)CC)c2c(n1)SC(c1ccccc1)C(c1ccccc1)=N2 (centres unmarked) [Compound 37, Ethyl (4-((5-(diethylamino)pentan-2-yl)amino)-6,7-diphenyl-7H-pyrimido[4,5-b][1,4]thiazin-2-yl) carbamate] | – | 10 fold | –
CCOC(=O)Nc1nc(NCCCCN(CC)CC)c2c(n1)SC(c1ccccc1)C(c1ccccc1)=N2 (centres unmarked) [Compound 38, Ethyl (4-((4-(diethylamino)butyl)amino)-6,7-diphenyl-7H-pyrimido[4,5-b][1,4]thiazin-2-yl)carbamate] | – | 10 fold | 18.5 µM
